Test results taken from publication PMC9271885 (eBioMedicine, 2022).
Values joined by “and” are separate entries in the source; they are usually repeats but may differ in a detail not shown here. Equal values may be shown once.

Tested on: SARS-CoV-2
Assay: Hamster model of SARS-CoV-2 infection, oral NTZ treatment (lung infectious titers, lung viral RNA yields, plasma viral loads)
Format: in vivo, Syrian hamsters
Set-up: Lung Infectious titers / Plasmatic viral RNA yields / Lung Viral RNA yields: unit not given here
Conditions: for Lung Infectious titers / Lung Viral RNA yields / Plasmatic viral RNA yields: inoculum 104 TCID50, Figure 3, individual animals
[1] = NTZ 500mg/kg/day BID oral for 3 days, 3 dpi
[2] = NTZ 500mg/kg/day BID oral for 4 days, 5 dpi
[3] = NTZ 750mg/kg/day TID oral for 3 days, 3 dpi
[4] = Nitazoxanide per os 500mg/kg/day BID, sacrifice day 3
[5] = Nitazoxanide per os 500mg/kg/day BID, sacrifice day 5
[6] = Nitazoxanide per os 750mg/kg/day BID, sacrifice day 3

CC(=O)Oc1ccccc1C(=O)Nc1ncc([N+](=O)[O-])s1 [NTZ, Nitazoxanide] was tested, and the “infectious titers in clarified lung homogenates vs untreated animals” value (“infectious titers … vs untreated animals” for short) [1] was “no significant differences”, the “viral RNA yields in clarified lung homogenates vs untreated animals” value [1] was “no significant differences” and the “viral RNA yields in plasma vs untreated animals” value [1] was “No significant difference”. For the same molecule, the “infectious titers … vs untreated animals” value [2] was “no significant reduction”, the “viral RNA yields in clarified lung homogenates vs untreated animals” value [2] was “no significant reduction” and the “viral RNA yields in plasma vs untreated animals” value [2] was “no significant reduction”. The “infectious titers … vs untreated animals” value [3] was “no significant differences”, the “viral RNA yields in clarified lung homogenates vs untreated animals” value [3] was “no significant differences” and the “viral RNA yields in plasma vs untreated animals” value [3] was “No significant difference”. The “Lung Infectious titers” value [4] was 8.038 and 8.250 and 7.442 and 7.772 and 7.773 and 7.077, the “Lung Viral RNA yields” value [4] was 8.641 and the “Plasmatic viral RNA yields” value [4] was 5.553 and 4.360 and 4.045 and 4.724 and 5.043 and 5.205. For the same molecule, the “Lung Viral RNA yields” value [5] was 7.115 and 6.597 and 6.910, the “Plasmatic viral RNA yields” value [5] was 3.987 and 3.600 and 3.442 and 4.487 and 3.519 and the “Lung Infectious titers” value (Nitazoxanide per os 500mg/kg/day BID, sacrifice day 5, § : considered at 60 TCID50/mL (detection threshold)) was ≤ 2.486 § and 4.354 and 4.491 and 5.007 and 3.086. For the same molecule, the “Lung Infectious titers” value [6] was 7.345 and 6.869 and 7.090 and 6.311 and 7.103 and 7.069, the “Lung Viral RNA yields” value [6] was 8.692 and the “Plasmatic viral RNA yields” value [6] was 3.193 and 2.818 and 5.191 and 4.129 and 4.008 and 4.113.
